# From US8853141B2, “Sulfomethylsuccinates, process for making same and compositions containing same” (Stepan Company, priority 2009, dated 2014)
# Assay: Surface activity, K12 Krüss tensiometer, automatic titration for CMC
# Assay type: physicochemical
# Experimental: Surface activity was measured with a K12 Krüss tensiometer at 25° C. in deionized water. Automatic titration was used to determine the critical micelle concentration (CMC). No pH adjustment was made for the measurement.
substance,measurement,value
dodecyl sulfosuccinate,critical micelle concentration (CMC),about 120 mg/L
